Test [1] has as its target T1, Rac1 (Homo sapiens, UniProt P63000).
T1 construct: purchased Cytoskeleton Inc
In words: Rho-GEF IC50 assay (GEF/DH domain-mediated mant-GTP binding). In kind it is biochemical. Here is the method:
(§1) Rho-GEF IC50 Assay: Rho-GEF assay (Cytoskeleton Inc., Denver, Colorado, United States of America) was conducted per manufacturer's instructions (λex=360 nm, λem=460 nm). Briefly, a solution (50 μL) of purified Rho GTPase (1 μM) and mant-GTP (1.5 μM) with or without compound (0.001-500 μM) was prepared and the absorbance monitored for 10-30 min to obtain the background/baseline. The addition of purified GEF/DH domain (0.08-0.2 μM) was carried out simultaneously and the absorbance was recorded for 30-45 min. The linear slope following the addition of the GEF was calculated and expressed as percentage of the control and plotted on an IC50 curve.

A further test has as its target T2, GTP-bound (active) Cdc42 (Mus musculus, UniProt P60766).
T2 construct: endogenous in cells; host or cells: Swiss 3T3 cells
Put plainly: G-LISA in serum-starved Swiss 3T3 cells. As to conditions: 50 μM. In kind it is cell-based. The protocol:
G-LISA: G-LISA is an ELISA-based assay that allows a quantitative determination of the levels of GTP-bound (active) Cdc42 in cellular lysates. Swiss 3T3 cells (˜50% confluent) were starved for 24h then treated with ZCL278 (50 μM) for 0, 5, 10, 15, 30, or 60 m. Cells were lysed and G-LISA conducted according to Cytoskeleton G-LISA protocol. Briefly, ˜300 μL of lysis buffer was added, cells were scraped, transferred to a centrifuge tube, and centrifuged at 0° C. for 1 min at 13,200 rpm. Samples were flash frozen in liquid nitrogen. Approximately […] protein was loaded into duplicate wells for G-LISA. Absorbance was measured at 490 nm.

In test [2] the target is T3, Rac1 (Mus musculus, UniProt P63001).
T3 construct: endogenous in cells; host or cells: Swiss 3T3 cells
Put plainly: G-LISA in serum-starved Swiss 3T3 cells. In kind it is cell-based. As to conditions: 50 μM.

The next test deals with Swiss 3T3 cells. In words: Immunofluorescence, cell morphology and bradykinin-mediated activation. In kind it is cell-based. The conditions noted are these: for changes to cell morphology: after 4 h of treatment, more drastic after six hours. Here is the method:
Immunofluorescence: Serum-starved Swiss 3T3 cells were pretreated with compound for 2 h before the addition of bradykinin (100 ng/mL) for 20 min. Cells were fixed in 4% paraformaldehyde for 15 min at RT and stored in PBS. Fixed cells were treated with 0.5% Triton for 30 min at RT, 100 mM Glycine 30 min at RT, and 10% BSA for 30 min at 37° C. Primary antibody for GM130 (1:1000, BD Biosciences, Franklin Lakes, New Jersey, United States of America) was used to probe for 1 h at RT followed by CY3-conjugated secondary antibody (1:1000) for 1 h at RT in the dark. Actin was stained with fluorescein-conjugated phalloidin (1:300). Hoechst (1:2500) was used to stain the nuclei. Coverslips were mounted onto slides using antifade medium from Life Technologies (Carlsbad, California, United States of America). Images were taken with a Zeiss Axiovert S100 microscope (Carl Zeiss; Thornwood, New York, United States of America).

Test [3] concerns the target T4, Cdc42 (Homo sapiens, UniProt P60953). The conditions noted are these: in the presence of activating upstream signaling compounds; cited from earlier work.
Target sequence in this assay (P60953 whole entry, species assumed, the tested form may be a part): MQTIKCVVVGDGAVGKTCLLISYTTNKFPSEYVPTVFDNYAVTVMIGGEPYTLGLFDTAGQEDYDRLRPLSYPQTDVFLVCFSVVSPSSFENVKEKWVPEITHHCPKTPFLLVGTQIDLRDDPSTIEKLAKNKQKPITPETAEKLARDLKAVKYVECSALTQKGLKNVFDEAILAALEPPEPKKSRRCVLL
Test [4] deals with T4, Cdc42. In words: Rho-GEF IC50 assay (GEF/DH domain-mediated mant-GTP binding). In kind it is biochemical. Details: purchased Cytoskeleton Inc. As to conditions: read-out: IC50, GEF/DH domain-mediated mant-GTP binding/Cdc42 activation. The protocol: as §1
Target sequence in this assay (P60953 whole entry, the tested form may be a part): as the sequence (P60953 whole entry, species assumed, the tested form may be a part) above
The subject of test [5] is 3×Tg-AD mice. In words: Burrowing test. The conditions noted are these: 3×Tg AD mouse model; 20 μg/g I.P. once a week, 4 weeks. In kind it is in vivo. From the text:
(§2) Six-month-old C57/BL6 (WT) and 3×Tg-AD mice with an average weight of 24 g from Jackson Laboratory (Bar Harbor, Maine, United States of America) were used. The 3×Tg-AD mice in hybrid 129/C57BL/6 background contain two mutant human transgenes, hAPP harboring Swedish mutation (hAPPswe) and mutant htau (htau301L) under a neuron-specific promoter, and also contain the knock-in mutant presenilin 1 (PS1M146V). See Oddo et al. (2003) Neuron 39:409-421). 3×Tg-AD mice were received from Jackson Laboratory as Psen1 B6:129-Psen1<tmMpm>Tg(APPSwetauP301L)1Lfa/J and the wild type control as SF2: (B6129SF1/J+p+Tyr-c+Mgf-SIJ)F2. All mice were subjected to two weeks of training for familiarizing behavioral test procedures. Subsequently, mice were assayed to establish a baseline of behavior tests before ZCL compound treatment. Then, mice were separated into three treatment groups (Control, ZCL278 and ZCL279). Both ZCL278 and ZCL279 were dissolved in sesame oil with 5% DMSO and each treatment was administrated via an intraperitoneal injection. All treatment groups of mice were treated once a week. Control group was treated with 130 μl 5% DMSO in sesame oil. […]
Burrowing test: At least 2.5 hours before the start of the dark cycle (4:30 pm), mice from each selected treatment group were housed in individual cages. […] After 2 hours, the food left in the tube was measured.

For test [6], the system named is 3×Tg-AD mice. Put plainly: Morris water maze test. In kind it is in vivo.
Source text: as §2, with “ZCL279).” for “ZCL279). Both ZCL278 and ZCL279 were dissolved in sesame oil with 5% DMSO and each treatment was administrated via an intraperitoneal injection. All treatment groups of mice were treated once a week. Control group was treated with 130 μl 5% DMSO in sesame oil.”
Mice were trained to swim to a 14 cm diameter circular clear Plexiglas platform submerged 1.5 cm beneath the surface of the water and invisible to the mice while swimming. […] Retention of the spatial training was assessed at 1.5 hr and again at 24 hr after the last training trial. […] Mice were monitored by a camera mounted in the ceiling directly above the pool, and all trials were stored on videotape for subsequent analysis.

A value given as a limit tells only on which side of the number the result lay.

T2 sequence (P60766 whole entry): as the sequence (P60953 whole entry, species assumed, the tested form may be a part) above

As to `Cc1cc(C)nc(NS(=O)(=O)c2ccc(NC(=S)NC(=O)COc3ccc(Br)cc3Cl)cc2)n1` [ZCL278, 4-(3-(2-(4-bromo-2-chloro-phenoxy)-acetyl)-thioureido)-N-(4,6-dimethylpyrimidin-2-yl)-benzenesulfonamide], the IC50 is no less than 500 µM at Rac1 [1] and 7.52 µM at Cdc42 [4]. In addition, the “effect on GTP-bound (active) Cdc42” value at GTP-bound (active) Cdc42 (0-60 m, serum-starved Swiss 3T3 cells) was “activates Cdc42”. Further, the entries for the “time of Cdc42 activity peak” value at GTP-bound (active) Cdc42 (another peak) and on GTP-bound (active) Cdc42 (first peak) were “about 60 min” and “Approximately 15 min”, respectively. In addition, the “effect on Rac1” value at Rac1 [2] is “inhibits Rac1”. For the same molecule, the “kind of morphology change” value with Swiss 3T3 cells (Swiss 3T3 cells) is “increase in ramification”. Also, the bradykinin-mediated activation entry in the test with Swiss 3T3 cells (Swiss 3T3 cells, bradykinin 100 ng/mL) is “inhibit bradykinin-mediated activation”. For the same molecule, in the test with Swiss 3T3 cells, the “changes to cell morphology” value is listed as “significant changes to cell morphology”. In addition, at Cdc42 [3], the “effect on Cdc42” value is reported as “inhibit Cdc42”.

Turning to `O=S(=O)(Nc1ccccc1O)c1ccc2oc3ccc(S(=O)(=O)Nc4ccccc4O)cc3c2c1` [ZCL279, N^2,N^8-bis(2-hydroxyphenyl)dibenzo[b,d]furan-2,8-disulfonamide], the “kind of morphology change” value in the test on Swiss 3T3 cells (Swiss 3T3 cells) was “reduction in cell body size and formation of elongated processes”. Moreover, the “changes to cell morphology” value in the test with Swiss 3T3 cells is “significant changes to cell morphology”. Further, the “instinctual behavior: food burrowing” value in the test on 3×Tg-AD mice [5] is “improve instinctual behavior”. Besides, the “spatial memory ability compared with WT mice” value in the test with 3×Tg-AD mice [6] (3×Tg AD mice, Day 4) is “appeared similar to WT mice”. In addition, in the test on 3×Tg-AD mice [6] (AD mouse model), the “spatial memory ability (latency in finding the submerged platform)” value is “improves spatial memory ability”.

The values above are taken from patent US12285393B2, “Roles of modulators of intersectin-Cdc42 signaling in Alzheimer's disease” (priority 2017, dated 2025).
